9 compounds from the NIST ThermoML archive (doi:10.1021/je3010535) can be followed below.

“And” between values parts separate entries of the source, which are not always exact repeats. Equal entries are not always repeated. ± gives the expanded uncertainty stated by the source.

The series in a line: Henry's Law constant (molality scale); of the first substance listed, at infinite dilution; xn = mol fraction of the nth substance listed. The settings on record: Liquid, Chromatography, x1 = 0.

As for `CC(C)(C)O` [2-methylpropan-2-ol] + O, the “Henry's Law constant” value reads like this: (273.25 K) 0.055 ± 0.017 kPa·kg/mol; (298.15 K) 1.25 ± 0.37 kPa·kg/mol; (311.15 K) 3.19 ± 0.96 kPa·kg/mol; (332.15 K) 6.96 ± 2.1 kPa·kg/mol.
Turning to `C#CCO` [2-propyn-1-ol] + O, the “Henry's Law constant” value reads like this: (273.25 K) 0.039 ± 0.012 kPa·kg/mol; (298.15 K) 0.255 ± 0.076 kPa·kg/mol; (311.15 K) 0.754 ± 0.23 kPa·kg/mol; (332.15 K) 3.71 ± 1.1 kPa·kg/mol.
For `C=CCCl` [3-chloro-1-propene] + O, the “Henry's Law constant” value reads like this: (274.15 K) 255 ± 76 kPa·kg/mol; (313.15 K) 1350 ± 410 kPa·kg/mol; (326.15 K) 3170 ± 950 kPa·kg/mol.
With `Cc1ccc(Cl)cc1` [4-chlorotoluene] + O, the “Henry's Law constant” value reads like this: (274.15 K) 85.6 kPa·kg/mol; (296.15 K) 232 kPa·kg/mol; (310.15 K) 224 kPa·kg/mol; (313.15 K) 591 kPa·kg/mol; (326.15 K) 1240 kPa·kg/mol; (331.15 K) 888 kPa·kg/mol.
As for `CC(=O)CC(C)C` [4-methylpentan-2-one] + O, the “Henry's Law constant” value is, setting by setting: (274.15 K) 0.834 ± 0.25 kPa·kg/mol; (294.65 K) 8.08 kPa·kg/mol and 8.27 kPa·kg/mol; (296.15 K) 9.34 ± 2.8 kPa·kg/mol; (310.15 K) 37.2 ± 11 kPa·kg/mol; (320.15 K) 72.5 ± 22 kPa·kg/mol; (331.15 K) 164 ± 49 kPa·kg/mol. The “Henry's Law constant” value (333.15 K) came out at 236 ± 71 kPa·kg/mol.
For the compound `Cl/C=C/Cl` [(E)-1,2-dichloroethene] + O, the “Henry's Law constant” value was 311 ± 93 kPa·kg/mol (274.15 K); 956 kPa·kg/mol and 852 kPa·kg/mol (294.65 K); 995 ± 300 kPa·kg/mol (296.15 K); 1820 ± 540 kPa·kg/mol (313.15 K); 2900 ± 870 kPa·kg/mol (326.15 K).
With `Cl/C=C\Cl` [(Z)-1,2-dichloroethene] + O, the “Henry's Law constant” value runs as follows: (274.15 K) 131 ± 39 kPa·kg/mol; (294.65 K) 317 kPa·kg/mol and 330 kPa·kg/mol; (296.15 K) 405 ± 120 kPa·kg/mol; (313.15 K) 636 ± 190 kPa·kg/mol; (326.15 K) 1110 ± 330 kPa·kg/mol.
With `ClCc1ccccc1` [(chloromethyl)benzene] + O, the “Henry's Law constant” value is 7.81 ± 2.3 kPa·kg/mol (273.25 K), 50.6 ± 15 kPa·kg/mol (298.15 K) and 139 ± 42 kPa·kg/mol (311.15 K).
For the compound `CC(C)=O` [acetone] + O, the “Henry's Law constant” value runs as follows: (274.15 K) 0.231 ± 0.092 kPa·kg/mol; (294.65 K) 1.44 kPa·kg/mol and 1.26 kPa·kg/mol; (296.15 K) 1.13 ± 0.45 kPa·kg/mol; (310.15 K) 7.55 ± 3 kPa·kg/mol; (320.15 K) 11.5 ± 4.6 kPa·kg/mol; (331.15 K) 16 ± 6.4 kPa·kg/mol. The “Henry's Law constant” value (333.15 K) amounted to 41.1 ± 16 kPa·kg/mol.
